# Source: patent US10933114B2, “Nutritional supplements containing a peptide component and uses thereof” (Mead Johnson Nutrition Company, priority 2014, dated 2021)
# Columns and labels:
# Assay type in all cases: in vivo
# LDLr knockout mice [1] = test: Body composition analysis by EchoMRI (Examples 1 and 2); settings: absolute values
# Method: (§1) Blood samples were takes in week 0, 3, 6, 9, 15 and 21 after 5 hours of fasting. Blood glucose was measured using hand-held glucometer immediately. Plasma cholesterol and plasma triglyceride levels were assayed immediately in fresh EDTA-plasma. The remainder of the plasma was stored at −80° C. for analysis of insulin and ALAT, and for possible other additional follow-up analysis. Faecal samples were collected over a 48 hour period at cage level in week 0, 9, and 21. Additionally, individual faecal samples were collected in week 21 to allow individual faecal analysis. Total body fat and lean body mass were assessed non-invasively by EchoMR1 in week 0, 9, 15, and 21. Mice were placed in a constraint tube which was then inserted into the EchoMR1 for a period of approximately 30 seconds. During that time, total body fat and lean body mass were calculated and recorded and the mouse was removed from the apparatus.
# (§2) Example 2 describes the experimental procedures for evaluating metabolic, and cardiovascular risk factors in LDLr knockout mice fed a HFD supplemented with a >500 Da peptide fraction of the Peptide component. The same experimental procedures and methodologies as employed in Example 1 were used in Example 2.
# LDLr knockout mice [2] = test: Liver function marker ALAT in pooled plasma (Examples 1 and 2)
# Method: as §1
# ALAT levels were measured at baseline, week 9 and week 21 in pooled plasma. Baseline levels were low (11 U/L). Upon HFD feeding, ALAT levels increased to 58 U/L in week 9 and further increased to 187 U/L in week 21 in the HFD group. For comparison, ALAT levels in chow fed mice reached levels of approximately 52 U/L in week 21 (data from other study). […] Also ALAT level in LGG treated mice were lower compared to HFD (66 U/L in week 9 and 124 U/L in week 21). […]
# LDLr knockout mice [3] = test: Fasting plasma cholesterol and triglycerides (Examples 1 and 2)
# Method: (§3) At t=0 mice were matched into experimental groups based on blood glucose (primary matching parameter) and body weight (secondary matching parameter). The control group received a lard based high fat diet (HFD 45 kcal % from lard; diet D12451 Research Diets, New Brunswick, USA) containing 23.7% w/w protein, 41.4% w/w carbohydrates and 23.6% w/w fat.
# as §1
# (§4) Blood glucose was measured immediately using a hand-held glucometer. Total plasma cholesterol and triglyceride levels were measured using kits No. 11489437 and 11488872 (Roche Diagnostics, Almere, The Netherlands), respectively. The plasma levels of insulin (Ultrasensitive mouse insulin ELISA, Merdocia, Uppsala, Sweden) were determined by ELISA.
# as §2
# LDLr knockout mice [4] = test: Tissue weights at sacrifice, week 21 (Examples 1 and 2); settings: sacrifice after 21 weeks
# Method: The mice were sacrificed (un-fasted) in week 21. After sacrifice, the following samples were isolated: • Serum Sample by heart puncture • Heart including aortic root (for atherosclerosis analysis) • Aortic arch (thoracic) in −80° C. • Total liver weight, 2 pieces of sinister and caudate lobe in −80° C., medial lobe formalin • Adipose tissue • Sub cutaneous (inguinal): weight, right in −80° C., left in formalin • Epididymal: weight, right in −80° C., left in formalin • Visceral (omental): weight, part in −80° C., part in formalin • Brown adipose tissue weight part in −80° C., part in formalin • Pancreas in −80° C. • Spleen (in formalin) • Kidneys (right in −80° C., left in formalin) • Ileum (last 8 cm before caecum) in −80° C. • Colon (including faeces) in −80° C. • Eyes: left in Davidson formalin, right in −80° C. • Brain (right in −80° C., left in 4% paraformaldehyde
# After 21 weeks of dietary treatment, the mice were sacrificed. Tissues were isolated and weighed.
# as §2
# LDLr knockout mice [5] = test: Body weight and food intake in LDLr knockout mice on high fat diet, 21 weeks (Examples 1 and 2, Study 2)
# Excerpt: Both the high fat diet and the tested diets with the peptide component, LCPUFA, and LGG were isocaloric. A control diet (low fat, 10% kcal by fat) served as a reference group. The first study, indicated as Study 1 in Table 3 below, compared the mice on the high fat diet, to mice on a high fat diet supplemented with a combination of the peptide component, LCPUFA, and LGG. Whereas, the second study, indicated as Study 2 in Table 3 below, examined the effects on the mice of the individual ingredients.
# Example 1 describes the experimental procedures for evaluating metabolic, and cardiovascular risk factors in LDLr knockout mice fed and HFD and supplemented with a peptide component, LCPUFA, and LGG.
# The mice used were LDLr knockout mice, which phenotypically express the main risk factors that are characteristic for metabolic syndrome and that are hallmarks of human disease. Experiments were performed to conform to the rules and regulations set forward by the Netherlands Law on Animal Experiments and were approved by a Committee on Animal Experiments (DEC; approval number 3486).
# Sixty-seven male LDLr−/− mice (11-18 weeks of age at the start of the experiment) obtained from the breeding facility at TNO were used. […]
# LDLr knockout mice [6] = test: Fasting blood glucose, plasma insulin and HOMA-IR (Examples 1 and 2)
# Method: as §3
# as §1, with “Additionally, individual faecal samples were collected in week 21 to allow individual faecal analysis.” left out, “Mice were placed in a constraint tube which was then inserted into the EchoMR1 for a period of approximately 30 seconds.” left out
# as §4, with “ELISA. […]” for “ELISA.”
substance,measurement,setting,value
Lactobacillus rhamnosus GG [LGG],Total body fat compared to HFD,LDLr knockout mice [1],No effects on total body fat
same,ALAT,"LDLr knockout mice [2]; week 9, pooled plasma",66 U/L
same,ALAT,"LDLr knockout mice [2]; week 21, pooled plasma",124 U/L
same,Plasma triglycerides compared to HFD control,"LDLr knockout mice [3]; NHLL week 9 until week 21, Peptide component all time points","slightly, but not significantly lower compared with HFD control"
same,Plasma cholesterol compared to other groups,LDLr knockout mice [3]; throughout the study,no significant effects on plasma cholesterol
same,Plasma triglycerides,LDLr knockout mice [3]; week 21,2.0 ± 1.0 mM
same,Liver weight compared to HFD,LDLr knockout mice [4],tended to be lower compared to the HFD
same,Adipose tissue weights compared to HFD,LDLr knockout mice [4]; three depots,comparable to HFD
same,Body weight compared to HFD,LDLr knockout mice [5]; after 21 weeks,"slightly, but not significantly lower compared to HFD"
same,Body weight,LDLr knockout mice [5]; after 21 weeks of HFD feeding,45.8 ± 5.3 g
same,"Fasting blood glucose, difference to HFD control","LDLr knockout mice [6]; t=9 weeks, temporary drop in HFD control absent in these groups",significant differences
same,Fasting plasma insulin compared to HFD control,"LDLr knockout mice [6]; week 21 (NHLL, Peptide component), time not stated for LCPUFA, LGG",comparable to the HFD control group
